Assay results reported in EPA's ToxRefDB 2.

Experiments:
[1] = test system: mouse; details: Subchronic oral toxicity in rodents, b6c3f1, Feed, dose end: 14 week, group: systemic
[2] = test system: rat; details: Subchronic oral toxicity in rodents, fischer, Feed, dose end: 14 week, group: systemic
[3] = test system: mouse; details: Carcinogenicity; b6c3f1; Oral; Feed; dose end: 2 year; group: systemic; systemic / pathology microscopic / liver / hypertrophy
[4] = test system: rat; details: Combined chronic toxicity/carcinogenicity, fischer, Oral, Feed, dose end: 2 year, group: systemic
[5] = test system: rat; details: Subchronic oral toxicity in rodents, sprague dawley, Feed, dose end: 90 day, group: systemic, systemic / in life observation / clinical signs / soft stools + systemic / in life observation / clinical signs / defecation (diarrhea)
[6] = test system: rat; details: Prenatal developmental toxicity study, sprague dawley, Oral, Gavage/Intubation, dose end: 15 GD
[7] = test system: mouse; details: Carcinogenicity, cd1, Oral, Feed, dose end: 78 week, group: systemic
[8] = test system: primate; details: Subchronic oral toxicity in nonrodent, rhesus, Feed, dose end: 6 month, group: systemic, systemic / organ weight / thyroid gland / absolute
[9] = test system: rat; details: Multigenerational reproductive toxicity study, sprague dawley, Oral, Feed, dose end: 2 generation
[10] = test system: rat; details: Combined chronic toxicity/carcinogenicity, sprague dawley, Oral, Feed, dose end: 31 month, group: systemic
[11] = test system: dog; details: Chronic toxicity; beagle; Oral; Feed; dose end: 12 month; group: systemic; systemic / hematology / anemia / anemia - hemolytic + systemic / hematology / erythrocyte (rbc) count differential / erythrocyte (rbc) + …
[12] = test system: rabbit; details: Prenatal developmental toxicity study, new zealand white, Oral, Gavage/Intubation, dose end: 28 GD
[13] = test system: rat; details: Subchronic oral toxicity in rodents, wistar, Feed, dose end: 13 week, group: systemic
[14] = test system: rat; details: Multigenerational reproductive toxicity study, wistar, Oral, Feed, dose end: 2 generation
[15] = test system: rabbit; details: Prenatal developmental toxicity study, himalayan, Oral, Gavage/Intubation, dose end: 28 GD
[16] = test system: dog; details: Chronic toxicity, beagle, Oral, Feed, dose end: 364 day, group: systemic
[17] = test system: rat; details: Chronic toxicity; wistar; Oral; Feed; dose end: 364 day; group: systemic; systemic / pathology gross / eye / opacity + systemic / pathology microscopic / eye / corneal pannus + systemic / pathology microscopic / …
[18] = test system: rat; details: Prenatal developmental toxicity study, wistar, Oral, Gavage/Intubation, dose end: 19 GD
[19] = test system: mouse; details: Carcinogenicity, other, Oral, Feed, dose end: 78 week, group: systemic
[20] = test system: mouse; details: Subchronic oral toxicity in rodents, other, Feed, dose end: 91 day, group: systemic
[21] = test system: dog; details: Subchronic oral toxicity in nonrodent, beagle, Feed, dose end: 90 day, group: systemic
[22] = test system: rat; details: Carcinogenicity, wistar, Oral, Feed, dose end: 24 month, group: systemic
[23] = systemic / hematology / platelet / platelet
[24] = systemic / in life observation / body weight / body weight + systemic / in life observation / body weight / body weight gain + systemic / …
[25] = systemic / clinical chemistry / alkaline phosphatase (alp/alk) / alkaline phosphatase (alp/alk)
[26] = systemic / in life observation / body weight / body weight + systemic / pathology microscopic / liver / hypertrophy
[27] = group: developmental, developmental / developmental malformation / bone / bent + developmental / developmental malformation / bone / incomplete ossification + …
[28] = group: maternal, reproductive / reproductive performance / postimplantation loss / postimplantation loss + reproductive / reproductive performance / …
[29] = systemic / clinical chemistry / thyroxine (t4) / thyroxine (t4), total
[30] = systemic / pathology microscopic / liver / adenoma + systemic / pathology microscopic / lung / adenoma + systemic / clinical chemistry / …
[31] = left thyroid + systemic / clinical chemistry / [other] / [other] + systemic / in life …
[32] = group: offspring, systemic / organ weight / liver / nos
[33] = group: parental, systemic / organ weight / testes / nos
[34] = group: reproductive, reproductive / reproductive performance / precoital interval / precoital interval
[35] = group: developmental, developmental / developmental malformation / bone / ossification sites + developmental / developmental malformation / bone / supernumerary
[36] = group: developmental, developmental / developmental malformation / bone / ossification sites + developmental / developmental malformation / bone / supernumerary…
[37] = group: maternal, systemic / clinical chemistry / tyrosine / tyrosine
[38] = systemic / pathology gross / thyroid gland / altered colloid
[39] = group: offspring, systemic / organ weight / spleen / absolute + systemic / organ weight / spleen / relative to body weight
[40] = group: parental, systemic / organ weight / kidney / absolute + systemic / organ weight / kidney / relative to body weight + systemic / organ weight / liver…
[41] = group: parental, systemic / organ weight / thyroid gland / absolute
[42] = group: developmental, developmental / developmental malformation / bone / [other] + developmental / developmental malformation / bone / incomplete ossification + …
[43] = group: maternal, reproductive / reproductive performance / aborted / aborted + systemic / in life observation / body weight / body weight gain + systemic / …
[44] = systemic / in life observation / food consumption / food efficiency + systemic / urinalysis / ketones / ketones + systemic / urinalysis / ph…
[45] = group: developmental, developmental / developmental malformation / bone / full supernumerary + developmental / developmental malformation / bone / misshapen + …
[46] = group: maternal, systemic / in life observation / body weight / body weight gain
[47] = systemic / in life observation / body weight / body weight + systemic / in life observation / body weight / body weight gain
[48] = systemic / in life observation / food consumption / food consumption + systemic / organ weight / testes / absolute + systemic / organ weight…
[49] = systemic / in life observation / body weight / body weight gain + systemic / in life observation / food consumption / food efficiency + …
[50] = systemic / urinalysis / ketones / ketones
[51] = systemic / in life observation / mortality / mortality + systemic / pathology gross / lymph node / enlarged + systemic / pathology gross / …

## O=S(=O)(c1ccc(Cl)cc1)c1ccc(Cl)cc1 [4,4'-Dichlorodiphenyl sulfone]
[1]; [23]
  LEL: 3.5 mg/kg/day
  NEL: < 3.5 mg/kg/day
[1]; [24]
  LOAEL: 50 mg/kg/day
  NOAEL: 15 mg/kg/day
[2]; [25]
  LEL: 2 mg/kg/day
  NEL: < 2 mg/kg/day
[2]; systemic / organ weight / liver / absolute + systemic / organ weight / liver / relative to body weight + systemic / clinical chemistry / …
  NOAEL: 2 mg/kg/day
[2]; systemic / organ weight / liver / absolute + systemic / organ weight / liver / relative to body weight + systemic / pathology microscopic / …
  LOAEL: 6 mg/kg/day
[3]
  LEL: 3.8 mg/kg/day
  LOAEL: 3.8 mg/kg/day
  NEL: < 3.8 mg/kg/day
  NOAEL: < 3.8 mg/kg/day
[4]; systemic / in life observation / body weight / body weight
  LEL: 1.5 mg/kg/day
[4]; [26]
  NEL: 0.5 mg/kg/day
  NOAEL: 1.5 mg/kg/day
[4]; systemic / pathology microscopic / liver / hypertrophy
  LOAEL: 5 mg/kg/day

## CCCCCC[C@H]1C(=O)O[C@H](C)[C@H](NC(=O)c2cccc(NC=O)c2O)C(=O)O[C@@H](C)[C@@H]1OC(=O)CC(C)C [Antimycin A]
[5]
  LEL: 0.5 mg/kg/day
  LOAEL: 0.5 mg/kg/day
  NEL: < 0.5 mg/kg/day
  NOAEL: < 0.5 mg/kg/day

## S=C([S-])NCCNC(=S)[S-].[Mn+2] [Maneb]
[6]; [27]
  LEL: 500 mg/kg/day
  LOAEL: > 500 mg/kg/day
  NEL: 100 mg/kg/day
  NOAEL: ≥ 500 mg/kg/day
[6]; [28]
  LEL: 100 mg/kg/day
  LOAEL: 100 mg/kg/day
  NEL: 20 mg/kg/day
  NOAEL: 20 mg/kg/day
[7]; [29]
  LEL: 10.8 mg/kg/day
  NEL: < 10.8 mg/kg/day
[7]; [30]
  LOAEL: > 355 mg/kg/day
  NOAEL: ≥ 355 mg/kg/day
[8]; left thyroid
  LEL: 15.5 mg/kg/day
  LOAEL: 15.5 mg/kg/day
[8]; [31]
  NEL: 5.2 mg/kg/day
  NOAEL: 5.2 mg/kg/day
[9]; group: offspring, developmental / developmental landmark / vaginal opening / vaginal opening
  LOAEL: 106 mg/kg/day
[9]; group: offspring, developmental / developmental landmark / vaginal opening / vaginal opening + systemic / in life observation / body weight / offspring (pup) …
  NOAEL: 25.1 mg/kg/day
[9]; [32]
  LEL: 5.8 mg/kg/day
  NEL: < 5.8 mg/kg/day
[9]; group: parental, systemic / organ weight / lung / nos
  LOAEL: 21.2 mg/kg/day
[9]; group: parental, systemic / organ weight / lung / nos + systemic / in life observation / body weight / body weight + systemic / in life observation / body …
  NOAEL: 5.3 mg/kg/day
[9]; [33]
  LEL: 5.3 mg/kg/day
  NEL: < 5.3 mg/kg/day
[9]; [34]
  LEL: 106 mg/kg/day
  LOAEL: > 106 mg/kg/day
  NEL: 25.1 mg/kg/day
  NOAEL: ≥ 106 mg/kg/day
[10]; systemic / organ weight / adrenal gland / absolute
  LEL: 21.8 mg/kg/day
[10]; systemic / organ weight / adrenal gland / absolute + systemic / pathology microscopic / pituitary gland / adenoma + systemic / pathology …
  NEL: 7.32 mg/kg/day
[10]; systemic / pathology microscopic / urinary bladder / dysplasia + systemic / clinical chemistry / [other] / [other] + systemic / clinical …
  LOAEL: 68.4 mg/kg/day
[10]; systemic / pathology microscopic / urinary bladder / dysplasia + systemic / pathology microscopic / skeletal muscle / sarcoma + systemic / …
  NOAEL: 20.4 mg/kg/day
[11]
  LEL: 7.18 mg/kg/day
  LOAEL: 33.8 mg/kg/day
  NEL: 1.71 mg/kg/day
  NOAEL: 6.36 mg/kg/day

## Cc1c(C(=O)c2c[nH]n(C)c2=O)ccc(S(C)(=O)=O)c1C1=NOCC1 [Topramezone]
[12]; [35]
  LEL: 5 mg/kg/day
  LOAEL: 5 mg/kg/day
[12]; [36]
  NEL: 0.5 mg/kg/day
  NOAEL: 0.5 mg/kg/day
[12]; [37]
  LEL: 0.5 mg/kg/day
  LOAEL: 0.5 mg/kg/day
  NEL: < 0.5 mg/kg/day
  NOAEL: < 0.5 mg/kg/day
[13]; [38]
  LEL: 1.1 mg/kg/day
  NEL: < 1.1 mg/kg/day
[13]; systemic / pathology microscopic / pancreas / degeneration
  LOAEL: 2.1 mg/kg/day
[13]; systemic / pathology microscopic / pancreas / degeneration + systemic / clinical chemistry / alkaline phosphatase (alp/alk) / alkaline …
  NOAEL: 1.1 mg/kg/day
[14]; group: offspring, developmental / developmental landmark / preputial separation / preputial separation + developmental / offspring survival late / viability …
  NOAEL: 0.4 mg/kg/day
[14]; group: offspring, developmental / developmental landmark / preputial separation / preputial separation + systemic / in life observation / body weight / litter…
  LOAEL: 4.2 mg/kg/day
[14]; [39]
  LEL: 0.4 mg/kg/day
  NEL: < 0.4 mg/kg/day
[14]; [40]
  LOAEL: 4.2 mg/kg/day
  NOAEL: 0.4 mg/kg/day
[14]; [41]
  LEL: 0.5 mg/kg/day
  NEL: < 0.5 mg/kg/day
[15]; [42]
  LEL: 50 mg/kg/day
  LOAEL: 50 mg/kg/day
  NEL: < 50 mg/kg/day
  NOAEL: < 50 mg/kg/day
[15]; [43]
  LEL: 450 mg/kg/day
  LOAEL: 450 mg/kg/day
  NEL: 150 mg/kg/day
  NOAEL: 150 mg/kg/day
[16]; [44]
  LEL: 2.9 mg/kg/day
  NEL: < 2.9 mg/kg/day
[16]; systemic / pathology microscopic / thyroid gland / hyperplasia
  LOAEL: 15.3 mg/kg/day
[16]; systemic / pathology microscopic / thyroid gland / hyperplasia + systemic / in life observation / body weight / body weight + systemic / in …
  NOAEL: 2.9 mg/kg/day
[17]
  LEL: 3.9 mg/kg/day
  LOAEL: 3.9 mg/kg/day
  NEL: 0.4 mg/kg/day
  NOAEL: 0.4 mg/kg/day
[18]; [45]
  LEL: 100 mg/kg/day
  LOAEL: 100 mg/kg/day
  NEL: < 100 mg/kg/day
  NOAEL: < 100 mg/kg/day
[18]; [46]
  LEL: 100 mg/kg/day
  LOAEL: 100 mg/kg/day
  NEL: < 100 mg/kg/day
  NOAEL: < 100 mg/kg/day
[19]; [47]
  LOAEL: 19 mg/kg/day
  NOAEL: < 19 mg/kg/day
[19]; [24]
  LEL: 19 mg/kg/day
  NEL: < 19 mg/kg/day
[20]; [48]
  LOAEL: > 2290 mg/kg/day
  NOAEL: ≥ 2290 mg/kg/day
[20]; systemic / organ weight / liver / relative to body weight
  LEL: 406 mg/kg/day
[20]; systemic / organ weight / liver / relative to body weight + systemic / in life observation / body weight / body weight gain + systemic / in …
  NEL: 51 mg/kg/day
[21]; [49]
  LOAEL: 1510 mg/kg/day
  NOAEL: 535 mg/kg/day
[21]; [50]
  LEL: 182 mg/kg/day
  NEL: < 182 mg/kg/day
[22]; [51]
  LEL: 0.4 mg/kg/day
  NEL: < 0.4 mg/kg/day
  NOAEL: 0.4 mg/kg/day
[22]; systemic / pathology microscopic / thyroid gland / hyperplasia + systemic / pathology microscopic / thyroid gland / hypertrophy + systemic…
  LOAEL: 3.6 mg/kg/day
